Data taken from ChEMBL document CHEMBL1134121, “Biphenyls as surrogates of the steroidal backbone. Part 2: discovery of a novel family of non-steroidal 5-alpha-reductase inhibitors” (Bioorg Med Chem Lett, 2001).

Key:
[1] = biological target: T1, 3-oxo-5-alpha-steroid 4-dehydrogenase 2 (Homo sapiens, UniProt P31213); test: Compound was tested for the inhibition of Steroid 5-alpha-reductase type 2 of human prostates; format: tissue-based, Prostate gland
T1 sequence (P31213 whole entry): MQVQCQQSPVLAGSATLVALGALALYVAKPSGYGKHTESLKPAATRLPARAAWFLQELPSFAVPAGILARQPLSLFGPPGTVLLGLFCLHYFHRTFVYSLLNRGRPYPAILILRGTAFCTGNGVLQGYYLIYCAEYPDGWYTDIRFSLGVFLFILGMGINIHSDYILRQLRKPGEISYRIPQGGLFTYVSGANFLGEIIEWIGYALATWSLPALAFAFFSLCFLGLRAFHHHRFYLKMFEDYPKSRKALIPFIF

[2] = biological target: T2, 3-oxo-5-alpha-steroid 4-dehydrogenase 2 (Homo sapiens) (UniProt P31213); test: Compound was tested for the inhibition of Steroid 5-alpha-reductase type 2 of human prostates at a concentration of 10e-6 M; format: tissue-based; conditions: Prostate gland
T2 sequence (whole entry): T1 sequence (P31213 whole entry)

[3] = biological target: T1, 3-oxo-5-alpha-steroid 4-dehydrogenase 2; test: Compound was tested for the inhibition of type 2 5-alpha-reductase of human prostates; format: tissue-based, Prostate gland

| Compound | IC50 [1] | inhibition [2] | other results |
| --- | --- | --- | --- |
| Cc1cc(C(=O)O)cc(C)c1-c1ccc(OCC(=O)N(C(C)C)C(C)C)cc1 | > 10000 nM | – | – |
| CC(C)N(C(=O)c1ccc(-c2ccc(C(=O)O)cc2)cc1)C(C)C | – | 32.5% | – |
| CC(C)N(C(=O)[C@H]1CC[C@H]2[C@@H]3CCc4cc(C(=O)O)ccc4[C@H]3CC[C@]12C)C(C)C | – | – | IC50 [3]: 2.1 nM |
| CC(C)c1cc(-c2ccc(C(=O)O)cc2)cc(C(C)C)c1OCC(=O)N(C(C)C)C(C)C | 71 nM | – | – |
| O=C(COc1c(F)cc(-c2ccc(C(=O)O)cc2)cc1[N+](=O)[O-])NC(c1ccccc1)(c1ccccc1)c1ccccc1 | – | – | IC50 [3]: 92 nM |
| CC(C)N(C(=O)COc1ccc(-c2ccc(C(=O)O)cc2C(F)(F)F)cc1)C(C)C | 570 nM | – | – |
| CC(C)N(C(=O)Cc1ccc(-c2ccc(C(=O)O)cc2)cc1)C(C)C | – | 37% | – |
| CC(C)N(C(=O)COc1ccc(-c2c(F)cc(C(=O)O)cc2F)cc1)C(C)C | > 10000 nM | – | – |
| CC(C)N(C(=O)c1cc(I)c(-c2ccc(C(=O)O)cc2)c([N+](=O)[O-])c1)C(C)C | – | 0% | – |
| CC(C)N(C(=O)c1cc(I)c(-c2ccc(C(=O)O)cc2)c(I)c1)C(C)C | – | 0% | – |
| CC(C)N(C(=O)COc1ccc(-c2ccc(C(=O)O)cc2)cc1)C(C)C | 830 nM | 57.5% | – |
| CC(C)N(C(=O)c1cc(Br)c(-c2ccc(C(=O)O)cc2)c(Br)c1)C(C)C | – | 0% | – |
| CC(C(=O)N(C(C)C)C(C)C)c1ccc(-c2ccc(C(=O)O)cc2)cc1 (stereo not drawn) | – | 26.9% | – |
| CC(C)N(C(=O)COc1c(F)cc(-c2ccc(C(=O)O)cc2)cc1[N+](=O)[O-])C(C)C | – | – | IC50 [3]: 9.8 nM |
| CC(C)N(C(=O)c1cc([N+](=O)[O-])c(-c2ccc(C(=O)O)cc2)c([N+](=O)[O-])c1)C(C)C | – | 0% | – |
| CCc1cc(OCC(=O)N(C(C)C)C(C)C)ccc1-c1ccc(C(=O)O)cc1 | – | – | IC50 [3]: 2000 nM |
| CC(C)N(C(=O)c1cc(N)c(-c2ccc(C(=O)O)cc2)c(N)c1)C(C)C | – | 0% | – |
| CC(C)N(C(=O)[C@H]1CCC2C3CC[C@H]4NC(=O)CC[C@]4(C)C3CC[C@@]21C)C(C)C (stereo partly drawn) | – | – | IC50 [3]: 41 nM |
| CC(C)N(C(=O)COc1ccc(-c2ccc(C(=O)O)cc2Cl)cc1)C(C)C | 870 nM | – | – |
| CC(C)N(C(=O)COc1cc(Cl)c(-c2ccc(C(=O)O)cc2)c(Cl)c1)C(C)C | > 10000 nM | – | – |
| CCc1cc(-c2ccc(C(=O)O)cc2)ccc1OCC(=O)N(C(C)C)C(C)C | – | – | IC50 [3]: 350 nM |
| CC(C)N(C(=O)COc1ccc(-c2c(Cl)cc(C(=O)O)cc2Cl)cc1)C(C)C | > 10000 nM | – | – |
